B1: wild type: wild type DcpS (scavenger decapping enzyme) used to complement DcpS knockdown cells (protein, UniProt Q96C86 2-337, looked up)
m7GpppX diphosphatase: ADAAPQLGKRKRELDVEEAHAASTEEKEAGVGNGTCAPVRLPFSGFRLQKVLRESARDKIIFLHGKVNEASGDGDGEDAVVILEKTPFQVEQVAQLLTGSPELQLQFSNDIYSTYHLFPPRQLNDVKTTVVYPATEKHLQKYLRQDLRLIRETGDDYRNITLPHLESQSLSIQWVYNILDKKAEADRIVFENPDPSDGFVLIPDLKWNQQQLDDLYLIAICHRRGIRSLRDLTPEHLPLLRNILHQGQEAILQRYRMKGDHLRVYLHYLPSYYHLHVHFTALGFEAPGSGVERAHLLAEVIENLECDPRHYQQRTLTFALRADDPLLKLLQEAQQS

Tests used:
Assay type in all cases: cell-based
[1] = system: endogenous DcpS exon 4 splice site; assay: Antisense splice switching of endogenous DcpS, splicing patterns by RT-PCR; settings: 293T cells
Protocol: FIG. 6. Splice switching of endogenous DcpS intron 4 to the DcpS^In15 alternative site. Vivo-morpholino antisense oligonucleotide (red line) was added to GM03813 cells and DcpS splicing tested. Schematic on lower right depicts the splicing pattern resulting with the indicated concentration of vivo-morpholino and arrows denote the primers used. Endogenous splicing is inhibited and shifted to the alternative site 45nt downstream as well as exon 4 skipping. Bottom panel is a control of exon2-exon3 junction not affected by the oligonucleotide. An exemplary antisense molecule comprises 5′ TTCCAGCCAGAAA CCTTTACCTGCT 3′ (SEQ ID NO: 1). However, antisense oligonucleotides can be designed to hybridize to the any contiguous 20-25 mer present in the DcpS variant sequence shown in FIG. 6.
Shifting of the endogenous DcpS gene to express the DcpS^In15 variant can also be accomplished by antisense oligonucleotide splice switching technology. With this approach, an antisense oligonucleotide complementary to the endogenous splice site is used to block the endogenous site and shift the splicing pattern to the DcpS^In15 pattern in SMA patient cells. The objective is to alter the endogenous DcpS splicing in order to generate sufficient levels of DcpS^In15 thereby elevating SMN2 gene expression and increasing levels of full length SMN protein. 293T cells were treated with 5 μM antisense morpholino oligonucleotide containing a cell permeable guanidinium based dendramer delivery system (vivo-morpholino; GeneTools LLC) for 24 hours and splicing patterns determined by RT-PCR. […] Instead ˜50% of the splicing utilizes the DcpS^In15 splice site 45 nucleotides downstream analogous to that observed in the homozygous DcpS^In15 ID patient cells, and ˜50% results in both sites being blocked and skipping of exon 4 entirely. In the latter case (lower panel in FIG. 6), splicing bypasses exon 4 and goes from exon 3 to exon 5. […] The invention also encompasses optimized oligonucleotide sequences comprising altered nucleotide backbones, and small molecules that can shift splicing to further improve levels of DcpS^In15, thereby elevating SMN2 levels and providing a therapeutic intervention for SMA patients.

fl-SMN2 mRNA = fl-SMN2 mRNA in GM03813 SMA patient cells expressing DcpS variants; settings: GM03813 cells knocked down for DcpS, stably expressing shRNA-resistant DcpS variant
Protocol: (§1) FIGS. 3A-3C. DcpS^In15 increases fl-SMN2 mRNA and SMN protein in GM03813 SMA patient cells. FIG. 3A. fl-SMN2 mRNA levels were tested in GM03813 cells knocked down for DcpS and stably expressing the indicated shRNA-resistant DcpS variants. […] (Average of three biological replicates) FIG. 3B. Western of SMN and DcpS proteins from cells used in A. (Average of two biological replicates). FIG. 3C. SMN protein levels increase in GM0813 cells expressing DcpS^In15 with a background of endogenous levels of DcpS protein.

SMN protein = assay: Western of SMN protein in GM03813 SMA patient cells expressing DcpS variants; settings: background of reduced endogenous DcpS
Protocol: as §1

Molecule | splicing that utilizes the DcpS^In15 splice site 45 nucleotides downstream ([1]; 5 μM, 24 hours, RT-PCR) | splicing with both sites blocked and skipping of exon 4 entirely ([1]; 5 μM, 24 hours, RT-PCR) | utilization of the endogenous exon 4 splice site ([1]; 5 μM, 24 hours, RT-PCR) | level of DcpS^In15 mRNA ([1]; antisense oligonucleotide splice switching) | fl-SMN2 mRNA levels (fl-SMN2 mRNA) | SMN protein level (Western) (SMN protein)
5′ TTCCAGCCAGAAA CCTTTACCTGCT 3′ (antisense TTCCAGCCAGAAACCTTTACCTGCT; vivo-morpholino guanidinium dendrimer delivery moiety, chemistry not fully specified) [vivo-morpholino oligonucleotide, antisense morpholino oligonucleotide containing a cell permeable guanidinium based dendramer delivery system (vivo-morpholino; GeneTools LLC)] | ~50% | ~50% | completely inhibits | increased level |  | 
B1 |  |  |  |  | not observed | not observed

Reference: US20170355956A1, “COMPOSITIONS FOR INCREASING SURVIVAL OF MOTOR NEURON PROTEIN (SMN) LEVELS IN TARGET CELLS AND METHODS OF USE THEREOF FOR THE TREATMENT OF SPINAL MUSCULAR ATROPHY” (RUTGERS, THE STATE UNIVERSITY OF NEW JERSEY, priority 2014, published 2017)
